According to patent US11931424B2, “Combination MCL-1 inhibitors with anti-body drug conjugates” (Gilead Sciences, Inc., priority 2021, dated 2024):

Test system: panel of breast cancer cell lines
Test: Compound A with targeted agents and chemotherapies, 72-hour in vitro proliferation assays
Format: cell-based
Conditions: 72-hour proliferation
[1] = AU565 cell line, compound A × partner
[2] = BT-20 cell line, compound A × partner
[3] = BT-474 cell line, compound A × partner
[4] = BT-549 cell line, compound A × partner
[5] = CAL-51 cell line, compound A × partner
[6] = CAL-85-1 cell line, compound A × partner
[7] = CAL-120 cell line, compound A × partner
[8] = CAL-148 cell line, compound A × partner
[9] = CAMA-1 cell line, compound A × partner
[10] = DU-4475 cell line, compound A × partner
[11] = EVSA-T cell line, compound A × partner
[12] = HCC1143 cell line, compound A × partner
[13] = MCF7 cells, Compound A × partner agent
[14] = MDA-MB-175-VII cells, Compound A × partner agent
[15] = MDA-MB-231 cells, Compound A × partner agent
[16] = MDA-MB-361 cells, Compound A × partner agent
[17] = MDA-MB-436 cells, Compound A × partner agent
[18] = MDA-MB-453 cells, Compound A × partner agent
[19] = MDA-MB-468 cells, Compound A × partner agent
[20] = SK-BR-3 cells, Compound A × partner agent
[21] = SUM159PT cells, combination of compound A with the named agent
[22] = T47D cells, combination of compound A with the named agent
[23] = ZR-75-1 cells, combination of compound A with the named agent
[24] = ZR-75-30 cells, combination of compound A with the named agent

## N.N.O=C([O-])C1(C(=O)[O-])CCC1.[Pt+2] [Carboplatin]
[1]
  Best CI: 1.10
  Bliss Volume: 6.93
  HSA volume: −0.68
  Loewe Volume: −0.04
  Synergy Score: 3.68
[2]
  Best CI: 0.66
  Bliss Volume: 7.81
  HSA volume: 1.55
  Loewe Volume: −0.31
  Synergy Score: 5.46
[3]
  Best CI: 1.30
  Bliss Volume: −3.87
  HSA volume: −5.02
  Loewe Volume: −4.61
  Synergy Score: 2.18
[4]
  Best CI: 1.30
  Bliss Volume: 6.55
  HSA volume: 4.24
  Loewe Volume: 4.88
  Synergy Score: 5.26
[5]
  Best CI: 0.89
  Bliss Volume: 2.81
  HSA volume: 2.17
  Loewe Volume: 2.97
  Synergy Score: 5.53
[6]
  Best CI: 1.11
  Bliss Volume: 4.84
  HSA volume: 3.68
  Loewe Volume: 3.42
  Synergy Score: 4.18
[7]
  Best CI: 0.58
  Bliss Volume: −0.19
  HSA volume: −1.52
  Loewe Volume: −0.25
  Synergy Score: 0.49
[8]
  Best CI: 0.27
  Bliss Volume: 11.40
  HSA volume: 12.06
  Loewe Volume: 11.89
  Synergy Score: 24.09
[9]
  Best CI: 0.46
  Bliss Volume: 9.50
  HSA volume: 6.02
  Loewe Volume: 6.21
  Synergy Score: 12.48
[10]
  Best CI: 0.76
  Bliss Volume: 10.04
  HSA volume: 7.26
  Loewe Volume: 6.59
  Synergy Score: 8.88
[11]
  Best CI: 0.84
  Bliss Volume: 9.55
  HSA volume: −0.13
  Loewe Volume: −0.33
  Synergy Score: 4.72
HCC38, compound A × partner
  Best CI: 0.63
  Best CI Level: 130
  Bliss Volume: 5.43
  HSA volume: 5.68
  Loewe Volume: 3.81
  Synergy Score: 9.07
HCC70, compound A × partner
  Best CI: 0.31
  Best CI Level: 60
  Bliss Volume: 12.67
  HSA volume: 3.84
  Loewe Volume: 3.02
  Synergy Score: 7.72
[12]
  Best CI: 0.82
  Bliss Volume: −4.47
  HSA volume: −2.24
  Loewe Volume: −2.60
  Synergy Score: 3.59
HCC1569, compound A × partner
  Best CI: 0.43
  Best CI Level: 30
  Bliss Volume: 4.84
  HSA volume: 2.05
  Loewe Volume: 2.91
  Synergy Score: 2.85
HCC1806, compound A × partner
  Best CI: 0.33
  Best CI Level: 80
  Bliss Volume: 11.43
  HSA volume: 4.44
  Loewe Volume: 9.76
  Synergy Score: 9.06
HCC1937, compound A × partner
  Best CI: 0.44
  Best CI Level: 25
  Bliss Volume: 5.97
  HSA volume: 3.52
  Loewe Volume: 4.56
  Synergy Score: 4.59
HCC1954, compound A × partner
  Best CI: 1.07
  Best CI Level: 125
  Bliss Volume: 2.26
  HSA volume: 2.07
  Loewe Volume: 0.71
  Synergy Score: 5.12
HCC2218, compound A × partner
  Best CI: 0.70
  Best CI Level: 45
  Bliss Volume: 2.59
  HSA volume: 0.49
  Loewe Volume: −1.33
  Synergy Score: 5.27
HDQ-P1, compound A × partner
  Best CI: 0.92
  Best CI Level: 35
  Bliss Volume: −3.17
  HSA volume: −3.06
  Loewe Volume: −3.13
  Synergy Score: 0.54
HMC-1-8, compound A × partner
  Best CI: 0.72
  Best CI Level: 155
  Bliss Volume: 9.25
  HSA volume: 4.09
  Loewe Volume: 3.94
  Synergy Score: 9.60
JIMT-1, compound A × partner
  Best CI: 0.96
  Best CI Level: 25
  Bliss Volume: 3.78
  HSA volume: −0.17
  Loewe Volume: 1.92
  Synergy Score: 0.69
KPL-1, compound A × partner
  Best CI: 0.89
  Best CI Level: 105
  Bliss Volume: 0.04
  HSA volume: 1.33
  Loewe Volume: 0.65
  Synergy Score: 2.66
[13]
  Best CI: 0.40
  Best CI Level: 75
  Bliss Volume: 8.40
  HSA volume: 5.66
  Loewe Volume: 4.40
  Synergy Score: 6.10
[14]
  Best CI: 0.60
  Best CI Level: 80
  Bliss Volume: 15.45
  HSA volume: 7.97
  Loewe Volume: 12.14
  Synergy Score: 9.73
[15]
  Best CI: 0.91
  Best CI Level: 50
  Bliss Volume: 3.11
  HSA volume: 2.11
  Loewe Volume: 3.30
  Synergy Score: 1.89
[16]
  Best CI: 0.82
  Best CI Level: 135
  Bliss Volume: 2.52
  HSA volume: 1.01
  Loewe Volume: 1.40
  Synergy Score: 7.41
[17]
  Best CI: 1.72
  Best CI Level: 135
  Bliss Volume: 1.31
  HSA volume: 1.06
  Loewe Volume: 1.16
  Synergy Score: 2.53
[18]
  Best CI: 1.12
  Best CI Level: 150
  Bliss Volume: 9.75
  HSA volume: 5.44
  Loewe Volume: 6.37
  Synergy Score: 10.04
[19]
  Best CI: 0.56
  Best CI Level: 135
  Bliss Volume: 19.05
  HSA volume: 4.48
  Loewe Volume: 3.36
  Synergy Score: 7.68
[20]
  Best CI: 0.35
  Best CI Level: 160
  Bliss Volume: 11.97
  HSA volume: 1.74
  Loewe Volume: 1.40
  Synergy Score: 6.87
[21]
  Best CI: 0.52
  Best CI Level: 20
  Bliss Volume: 1.33
  HSA volume: −1.99
  Loewe Volume: −0.01
  Synergy Score: 0.81
[22]
  Best CI: 1.01
  Best CI Level: 30
  Bliss Volume: 0.78
  HSA volume: −1.67
  Loewe Volume: 0.98
  Synergy Score: 1.42
[23]
  Best CI: 0.88
  Best CI Level: 100
  Bliss Volume: 4.99
  HSA volume: 6.14
  Loewe Volume: 6.57
  Synergy Score: 7.91
[24]
  Best CI: 0.30
  Best CI Level: 100
  Bliss Volume: 8.34
  HSA volume: 6.81
  Loewe Volume: 5.78
  Synergy Score: 12.96
